{"source": "patent US20150030668A1", "about": "(priority 2012, published 2015)", "key": {"[1]": {"system": "Mycobacterium tuberculosis", "settings": "NAC at 10 millimolar"}, "[2]": {"settings": "rat liver, CO-60, control (water) = 0%", "source_text": "The tissue from the control animals (water) served as the 100% of the toxin remaining in the tissue. The animals receiving: • a."}, "[3]": {"system": "aflatoxin B1-induced hepatic nodules or tumors", "settings": "mouse, in vivo; cited from earlier work"}}, "note": "Where two headings read alike, the source gives them in different places.", "data": [{"smiles": "CC(=O)N[C@@H](CS)C(=O)O", "note": "[NAC, N-acetyl cysteine]", "values": [{"measurement": "CFU/ml reduced to", "setting": "[1]", "result": "8,000 CFU/ml"}]}, {"smiles": "N[C@@H](CCC(=O)N[C@@H](CS)C(=O)NCC(=O)O)C(=O)O", "note": "[Plain glutathione, glutathione (reduced)]", "values": [{"measurement": "removal of the toxin", "setting": "[2]", "result": 10, "unit": "%"}, {"measurement": "removal of the toxin", "setting": "[2]; listed as Intravenous glutathione", "result": 70, "unit": "%"}, {"measurement": "decreasing the incidence or size of hepatic nodules or tumors", "setting": "[3]", "result": "no benefit"}]}]}
